Laboratory results reported in PubChem BioAssay (NCI).
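Five concentrations, 48 hours, 96-well plates. TGI denotes the concentration required for complete inhibition of growth.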

Key:
Test in all cases: NCI anticancer screen, dose series, 48 h
RPMI-8226 leukemia = system: RPMI-8226 leukemia
CCRF-CEM leukemia = system: CCRF-CEM leukemia
SF-268 CNS = system: SF-268 CNS
HOP-62 NSCLC = system: HOP-62 NSCLC
OVCAR-5 ovarian = system: OVCAR-5 ovarian
EKVX NSCLC = system: EKVX NSCLC
MDA-MB-231 breast = system: MDA-MB-231 breast
SR leukemia = system: SR leukemia
BT-549 breast = system: BT-549 breast
SNB-75 CNS = system: SNB-75 CNS
786-0 renal = system: 786-0 renal
NCI-H522 lung = system: NCI-H522 lung
CAKI-1 renal = system: CAKI-1 renal
MCF7 breast = system: MCF7 breast
HCC-2998 colon = system: HCC-2998 colon
MALME-3M melanoma = system: MALME-3M melanoma
RXF 393 renal = system: RXF 393 renal
IGROV1 ovarian = system: IGROV1 ovarian
SN12C renal = system: SN12C renal

Q: For Cc1cc(O)c2c(c1)CC(O)C1=C2C(=O)c2c(O)ccc(OC3CC(O)C(OC4CC(OC5CCC(O)C(C)O5)C(O)C(C)O4)C(C)O3)c2C1=O (centres undefined), which TGI (RPMI-8226 leukemia) is on record?
A: 3.22 µM

Q: What about the TGI (CCRF-CEM leukemia) of the same compound?
A: 0.706 µM

Q: And the TGI (SF-268 CNS)?
A: 3.43 µM

Q: And the TGI (HOP-62 NSCLC)?
A: 3.77 µM

Q: What about the TGI (OVCAR-5 ovarian) of the same compound?
A: 12.8 µM

Q: What about the TGI (EKVX NSCLC) of the same compound?
A: 4.27 µM

Q: And the TGI (MDA-MB-231 breast)?
A: 3.58 µM

Q: What about the TGI (SR leukemia) of the same compound?
A: 2.81 µM

Q: What about the TGI (BT-549 breast) of the same compound?
A: 3.42 µM

Q: And the TGI (SNB-75 CNS)?
A: 7.73 µM

Q: And the TGI (786-0 renal)?
A: 3.47 µM

Q: What about the TGI (NCI-H522 lung) of the same compound?
A: 2.52 µM

Q: What about the TGI (CAKI-1 renal) of the same compound?
A: 3.23 µM

Q: And the TGI (MCF7 breast)?
A: 2.96 µM

Q: And the TGI (HCC-2998 colon)?
A: 3.58 µM

Q: And the TGI (MALME-3M melanoma)?
A: 2.1 µM

Q: And the TGI (RXF 393 renal)?
A: 3.02 µM

Q: What about the TGI (IGROV1 ovarian) of the same compound?
A: 2.9 µM

Q: And the TGI (SN12C renal)?
A: 3.25 µM
